Laboratory results: US20140128412A1, “COMBINATION OF AN ANT[…] AN ANTI-INFLAMMATORY AGENT” (priority 2011, published 2014)

Key:
Assay type in all cases: in vivo, human
plasma TNF-α = experiment: Plasma TNF-α level by ELISA in the double-blind clinical trial; details: schizophrenic patients, FIG. 3B
Source text: (§1) One hundred and thirty-seven Han Chinese schizophrenic patients and 67 Han Chinese healthy controls (age range: 20-59 years old) were recruited from the Department of Psychiatry at National Cheng Kung University Hospital and the National Defense Medical Center. All patients were screened for being used. The Chinese version of the SADS-L, which has good reliability and validity, was used to screen all participants for psychiatric conditions and whether they fit the DSM-IV diagnostic criteria for schizophrenia without any comorbidity. Exclusion conditions were: 1) pregnant or nursing women; 2) women of childbearing potential not using adequate contraception as per investigator judgment or not willing to use contraception for the duration of study; 3) patients who had used dextromethorphan, other selective cyclooxygenase 2 inhibitors, or other anti-inflammatory medication within 1 week before the first dose of double-blind medication; 4) a major mental illness other than schizophrenia, including alcoholism and illegal substance use disorder; 5) a clinically significant medical condition, e.g., cardiac, hepatic, or renal disease with current evidence of poor control; 6) patient who had undergone electroconvulsive therapy within 4 weeks before the first dose of double-blind medication; 7) SGOT, SGPT, BUN, and creatinine levels/an SGOT, SGPT, BUN, or creatinine level greater than 3-fold the upper limit of normal. All the healthy controls were free of major and minor mental illness. All research involving humans was reviewed and approved by the National Chung Kung University and National Defense Medical Center Institutional Review Boards before the study began.
This study was a double-blind, stratified, randomized, parallel-group, two-center clinical trial. The treatment was risperidone plus a double-blind add-on of randomly assigned DM or a placebo. Participants began the study immediately after they had been screened for eligibility (screening visit: V). The pre-treatment study phase consisted of a 7-day (V to 0 week) antipsychotic switch-over period for patients (patient hospitalized) who were taking oral antipsychotic medication other than risperidone alone at the screening, or who had been using depot medication for an entire cycle before the screening. […]
(§2) Ten milliliters of whole blood was drawn and collected from each participant's antecubital vein at the screening visit (V), 0, 1, 2, 4, 6, 8, and 11 weeks. […] Plasma cytokine, CRP and BDNF concentrations were quantified using enzyme-linked immunosorbent assays (ELISA). A kit (Quantikine Human Cytokine kit; R&D Systems) and an ELISA reader (SpectraMax-M2; Molecular Devices) ELISA reader were used to analysis plasma IL-1β, TNF-α, CRP, and BDNF levels. […]

plasma IL-1β = experiment: Plasma IL-1β level by ELISA in the double-blind clinical trial; details: schizophrenic patients, FIG. 3A
Source text: (§3) One hundred and thirty-seven Han Chinese schizophrenic patients and 67 Han Chinese healthy controls (age range: 20-59 years old) were recruited from the Department of Psychiatry at National Cheng Kung University Hospital and the National Defense Medical Center. All patients were screened for being used. The Chinese version of the SADS-L, which has good reliability and validity, was used to screen all participants for psychiatric conditions and whether they fit the DSM-IV diagnostic criteria for schizophrenia without any comorbidity. […]
as §2

plasma BDNF = experiment: Plasma BDNF level by ELISA in the double-blind clinical trial; details: schizophrenic patients, after 11 weeks of treatment; FIG. 3D
Source text: as §3, §2

plasma CRP = experiment: Plasma CRP level by ELISA in the double-blind clinical trial; details: schizophrenic patients, FIG. 3C
Source text: as §1, with “All research involving humans was reviewed and approved by the National Chung Kung University and National Defense Medical Center Institutional Review Boards before the study began.” left out
as §2

Cc1nc2n(c(=O)c1CCN1CCC(c3noc4cc(F)ccc34)CC1)CCCC2 [Risp only, risperidone]
plasma TNF-α levels at the end of the study (plasma TNF-α; end of study (11 weeks) vs visit): significantly higher
course of plasma TNF-α levels during the study (plasma TNF-α; visit to 11 weeks): rose significantly
time after which plasma TNF-α levels rose significantly (plasma TNF-α): 4 weeks
time of peak plasma TNF-α level (plasma TNF-α): 6 weeks
change in plasma IL-1β levels (plasma IL-1β; after 11 weeks of treatment, risperidone 1-6 mg/day, DM 60 mg/day): significant decrease
time after which plasma IL-1β level fell (plasma IL-1β): 8 weeks
change in plasma BDNF levels (plasma BDNF): did not change
plasma CRP level at start (first value of 'from ... to') (plasma CRP; before add-on treatment, mean±SEM): 2576.0±484.0
plasma CRP level at end (second value of 'from ... to') (plasma CRP; end of treatment, mean±SEM): 1946.0±369.6
change in plasma CRP levels (plasma CRP; over the study): tended to decrease but were not significantly different
